Data reported in patent publication US10442793B2, “Oxa spiro derivative, preparation method therefor, and applications thereof in medicines” (Jiangsu Hengrui Medicine Co., Ltd., priority 2015, dated 2019).
Where two headings read alike, the source gives them in different places.

Experiments:
Assay type in all cases: cell-based
hERG potassium channel = biological target: T1, hERG potassium channel (Homo sapiens, UniProt Q12809); test: Blocking of hERG potassium current, automatic patch clamp on HEK293-hERG cells
T1 construct: expressed in transfected cells; host or cells: HEK293
T1 sequence (Q12809 whole entry): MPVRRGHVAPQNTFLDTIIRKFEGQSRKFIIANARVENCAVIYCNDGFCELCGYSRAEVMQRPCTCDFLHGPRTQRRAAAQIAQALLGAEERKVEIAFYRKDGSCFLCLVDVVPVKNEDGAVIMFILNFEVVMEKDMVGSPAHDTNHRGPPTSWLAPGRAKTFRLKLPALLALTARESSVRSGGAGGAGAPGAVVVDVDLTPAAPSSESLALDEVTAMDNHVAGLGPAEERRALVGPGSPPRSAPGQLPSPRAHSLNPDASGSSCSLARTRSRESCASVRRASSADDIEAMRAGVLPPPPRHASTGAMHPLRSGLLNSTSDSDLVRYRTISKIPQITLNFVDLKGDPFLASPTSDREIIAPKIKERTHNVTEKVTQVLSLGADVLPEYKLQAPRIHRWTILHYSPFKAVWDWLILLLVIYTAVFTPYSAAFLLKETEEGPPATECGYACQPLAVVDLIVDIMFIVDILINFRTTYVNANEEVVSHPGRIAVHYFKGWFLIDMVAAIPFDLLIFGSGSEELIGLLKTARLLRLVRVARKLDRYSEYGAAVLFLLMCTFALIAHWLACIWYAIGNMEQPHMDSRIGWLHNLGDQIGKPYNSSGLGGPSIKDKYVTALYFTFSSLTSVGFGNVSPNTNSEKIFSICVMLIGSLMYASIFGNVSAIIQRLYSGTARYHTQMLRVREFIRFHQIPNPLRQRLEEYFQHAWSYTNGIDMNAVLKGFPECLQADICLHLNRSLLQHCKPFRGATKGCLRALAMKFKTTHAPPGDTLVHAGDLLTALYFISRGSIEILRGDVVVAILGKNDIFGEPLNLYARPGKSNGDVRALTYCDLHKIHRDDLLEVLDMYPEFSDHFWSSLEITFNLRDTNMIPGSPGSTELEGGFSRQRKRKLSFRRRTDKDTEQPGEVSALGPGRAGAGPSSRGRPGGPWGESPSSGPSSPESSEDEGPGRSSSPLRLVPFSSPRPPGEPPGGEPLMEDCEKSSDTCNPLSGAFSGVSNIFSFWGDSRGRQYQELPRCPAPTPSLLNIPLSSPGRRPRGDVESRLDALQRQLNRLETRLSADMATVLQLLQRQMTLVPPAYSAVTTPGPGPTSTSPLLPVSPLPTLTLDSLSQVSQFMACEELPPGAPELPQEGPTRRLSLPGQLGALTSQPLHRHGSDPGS
Protocol: The blocking effect of the compounds of the present invention and the positive compound TRV-130 (Journal of Pharmacology and Experimental Therapeutics, Volume 344, Issue 3, Pages 708-717, 2013) on hERG potassium current was tested on a stable cell line transfected with hERG potassium channel using an automatic patch clamp.
HEK293-hERG stabilized cells were subcultured at a density of 1:4 in a MEM/EBSS medium (10% FBS, 400 μg/ml G418, 1% MEM nonessential amino acid solution (100×), 1% sodium pyruvate solution) for 48-72 hours, then the automatic patch clamp experiment was performed. The cells were digested with 0.25% trypsin on the day of the experiment, then the cells were collected by centrifugation and resuspended with extracellular fluid (140 mM NaCl, 4 mM KCl, 1 mM MgCl2, 2 mM CaCl2, 5 mM D-glucose monohydrate, 10 mM Hepes, pH 7.4, 298 mOsmol) into a cell suspension. The cell suspension was placed on the cell bank of the Patchliner instrument, and the cells were added to the chip (NPC-16) by the negative pressure controller of the Patchliner instrument, with negative pressure attracting individual cells to the small hole of the chip. After the whole cell model was formed, the instrument generated the hERG current according to the preset hERG current and voltage program, and then the instrument perfused the compound from low concentration to high concentration automatically. HEAK Patchmaster, HEAK EPC10 patch clamp amplifier (Nanion), Pathliner software, and a data analysis software provided by Pathcontrol HTsoftware were used to analyze the current of the compounds at different concentrations and the current of the blank control.
The blocking effect of the compounds of the present invention on hERG potassium current was determined by the above test, and the IC50 values are shown in Table 3.

μ-opioid receptors (MOR) = biological target: T2, μ-opioid receptors (MOR) (Homo sapiens, UniProt P35372); test: MOR activity test: HEK293/MOR/CRE luciferase reporter, agonizing MOR and affecting downstream cAMP levels; conditions: for Emax: HEK293, maximum effect of TRV-130 is 100%, read-out: Emax on agonizing MOR receptor and affecting cAMP levels
T2 construct: host or cells: HEK293
T2 sequence (P35372 whole entry): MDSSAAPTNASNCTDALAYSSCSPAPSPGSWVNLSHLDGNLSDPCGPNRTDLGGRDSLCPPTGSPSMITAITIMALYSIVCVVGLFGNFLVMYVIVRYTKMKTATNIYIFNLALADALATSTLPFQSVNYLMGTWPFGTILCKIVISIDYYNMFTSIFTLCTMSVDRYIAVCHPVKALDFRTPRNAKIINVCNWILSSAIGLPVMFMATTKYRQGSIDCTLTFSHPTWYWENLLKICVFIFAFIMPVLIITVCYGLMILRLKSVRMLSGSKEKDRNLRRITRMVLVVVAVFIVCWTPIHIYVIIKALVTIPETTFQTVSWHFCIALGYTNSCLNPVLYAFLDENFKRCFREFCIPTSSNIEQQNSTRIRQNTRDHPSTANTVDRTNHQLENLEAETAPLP
Excerpt: The compounds of the present invention can activate μ-opioid receptors (MOR). Activated MOR can regulate intracellular cAMP levels, and cAMP enters the nucleus and binds to the CRE region of the reporter gene luciferase, thereby initiating the expression of the reporter gene. Luciferase can react with its substrate to emit fluorescence, and the measured fluorescence signals reflect the agonistic activity of the compounds.
The activity of the test example compounds on agonizing MOR and affecting downstream cAMP levels was tested by the following method.
MOR/pcDNA3.1 (+) and CRE/pGL4.29 were transferred into HEK293 cells. G418 and hygromycin were added into the culture medium, and HEK293/MOR/CRE monoclonal cell lines were screened in a 96-well cell culture plate.
HEK293/MOR/CRE monoclonal cells were cultured in a DMEM/high glucose medium (10% FBS, 1 mg/ml G418, 200 μg/ml hygromycin, mixed uniformly), and passaged every 3 days. On the day of the experiment, a cell suspension was prepared with a fresh cell medium, added to a 96 well plate (BD, #356692) with 20,000 cells/well, and incubated in 5% CO2 at 37° C. On the second day, the compound was dissolved in pure DMSO at a concentration of 20 mM, then formulated with DMSO to a first concentration of 4 mM and diluted in 10 fold concentration gradient to 6 concentrations. Then, 90 μl of DMSO was added to blank and control wells. Then, formulated compound was prepared by adding 2.5 μl of the compound solutions formulated in DMSO at a gradient concentration to 97.5 μl of a fresh cell culture medium containing 5 μM foscolin. Then, 10 μl of the formulated compound was added to the cell culture plate to make the final concentration of the compound 10000, 1000, 100, 10, 1, 0.1, or 0.01 nM, and the plate was incubated at 37° C., in 5% CO2 for 5 hours. In a 96-well cell culture plate, 100 μl of luciferase assay solution (Promega, # E6110) was added to each well. The plate was placed in the dark at room temperature for 10-15 minutes, blowed and aspirated 10 times, and 100 μl were pipetted to a 96 well white plate. The chemiluminescence signal values were read in a microplate reader (PE, Victor3), and the read data was processed using software.
The activity of the compounds of the present invention on agonizing MOR and affecting downstream cAMP levels was determined by the above test, and the EC50 values are shown in Table 1.1.

MOR receptor = biological target: T3, MOR receptor (Homo sapiens, UniProt P35372); test: Activation of the β-arrestin signaling pathway of MOR receptor (CHO-K1 OPRM1 β-Arrestin cells, DiscoveRX); conditions: for Emax: maximum effect of morphine is 100%
T3 construct: host or cells: CHO-K1
T3 sequence (P35372 whole entry): as above
Protocol: The experiment objective is to determine the activity of the compounds of the present invention on activating the β-arrestin signaling pathway of MOR receptor.
The drug was prepared as a 20 mM stock solution that was later diluted with 100% DMSO to a 200×concentration gradient, and then diluted with a 20-fold AssayComplete™ Cell Plating 2 Reagent (93-0563R2B, DiscoveRX) medium. The cell culture plate inoculated on the first day was taken out, and 10 μl of the diluted drug or control (0.5% DMSO) was added to each well. The plate was gently shaken and placed in an incubator at 37° C., 5% CO2 for 90 minutes. Finally, 50 μL of a detection reagent (93-0001, DiscoveRX) were added to each well, and the plate was placed at room temperature for 60 minutes. The absorbance values were measured by the cold light model of a microplate reader (PE, Victor3). The EC50 values of the compounds were calculated by Graphpad Prism software according to each concentration of the compound and the corresponding signal value.

[1] = CHO-K1 OPRM1 β-Arrestin cells, 90 minutes, read-out: EC50 on the β-arrestin signaling pathway
[2] = HEK293/MOR/CRE cells, 5 h incubation, forskolin, read-out: EC50 on agonizing MOR receptor and affecting cAMP levels

c1ccc([C@]2(CCN[C@H]3CCOc4ccccc43)CCOC3(CCCC3)C2)nc1 (single isomer, unassigned) [Example 5]
IC50 (hERG potassium channel): 6200 nM
EC50 (μ-opioid receptors (MOR)): 5 nM
Emax (μ-opioid receptors (MOR)): 122%

CCN1CC[C@@H](NCC[C@@]2(c3ccccn3)CCOC3(CCCC3)C2)c2ccccc21 [Example 2, (R)-1-ethyl-N-(2-((R)-9-(pyridin-2-yl)-6-oxaspiro[4.5]decan-9-yl)ethyl)-1,2,3,4-tetrahydroquinolin-4-amine]
EC50 (MOR receptor; [1]): > 10000 nM
Emax (MOR receptor): 4%
EC50 (μ-opioid receptors (MOR); [2]): > 10000 nM
Emax (μ-opioid receptors (MOR)): 0%

O[C@@H]1Cc2ccccc2[C@H]1NCC[C@@]1(c2ccccn2)CCOC2(CCCC2)C1 [Example 3, (1R,2R)-1-((2-((R)-9-(pyridin-2-yl)-6-oxaspiro[4.5]decan-9-yl)ethyl)amino)-2,3-dihydro-1H-inden-2-ol]
IC50 (hERG potassium channel): > 30000 nM
EC50 (μ-opioid receptors (MOR)): 2 nM
Emax (μ-opioid receptors (MOR)): 124%

CO[C@@H]1Cc2ccccc2[C@H]1NCC[C@@]1(c2ccccn2)CCOC2(CCCC2)C1 [Example 4, (1R,2R)-2-methoxy-N-(2-((R)-9-(pyridin-2-yl)-6-oxaspiro[4.5]decan-9-yl)ethyl)-2,3-dihydro-1H-inden-1-amine]
EC50 (μ-opioid receptors (MOR)): 1 nM
Emax (μ-opioid receptors (MOR)): 129%

c1ccc([C@]2(CCN[C@H]3CCOc4ccccc43)CCOC3(CCCC3)C2)nc1 [Example 6, (S)-N-(2-((R)-9-(pyridin-2-yl)-6-oxaspiro[4.5]decan-9-yl)ethyl)chroman-4-amine]
IC50 (hERG potassium channel): 3800 nM
EC50 (μ-opioid receptors (MOR)): 1 nM
Emax (μ-opioid receptors (MOR)): 115%

c1ccc([C@]2(CCN[C@@H]3CCOc4ccccc43)CCOC3(CCCC3)C2)nc1 [Example 7, (R)-N-(2-((R)-9-(pyridin-2-yl)-6-oxaspiro[4.5]decan-9-yl)ethyl)chroman-4-amine]
EC50 (μ-opioid receptors (MOR)): > 10000 nM
Emax (μ-opioid receptors (MOR)): 0%

Fc1ccc2c(c1)C(NCC[C@@]1(c3ccccn3)CCOC3(CCCC3)C1)CCO2 (stereo partly drawn) [Example 8, 6-fluoro-N-(2-((R)-9-(pyridin-2-yl)-6-oxaspiro[4.5]decan-9-yl)ethyl)chroman-4-amine]
EC50 (μ-opioid receptors (MOR)): 3 nM
Emax (μ-opioid receptors (MOR)): 114%

c1ccc([C@]2(CCN[C@@H]3CCCc4ccccc43)CCOC3(CCCC3)C2)nc1 [Example 9, (R)-N-(2-((R)-9-(pyridin-2-yl)-6-oxaspiro[4.5]decan-9-yl)ethyl)-1,2,3,4-tetrahydronaphthalen-1-amine]
EC50 (μ-opioid receptors (MOR)): > 10000 nM
Emax (μ-opioid receptors (MOR)): 48%

c1ccc([C@]2(CCN[C@H]3CCCc4ccccc43)CCOC3(CCCC3)C2)nc1 [Example 10, (S)-N-(2-((R)-9-(pyridin-2-yl)-6-oxaspiro[4.5]decan-9-yl)ethyl)-1,2,3,4-tetrahydronaphthalen-1-amine]
EC50 (μ-opioid receptors (MOR)): 4 nM
Emax (μ-opioid receptors (MOR)): 113%

c1ccc([C@]2(CCN[C@@H]3CCc4ccccc43)CCOC3(CCCC3)C2)nc1 [Example 15, (R)-N-(2-((R)-9-(pyridin-2-yl)-6-oxaspiro[4.5]decan-9-yl)ethyl)-2,3-dihydro-1H-inden-1-amine]
EC50 (μ-opioid receptors (MOR)): > 10000 nM
Emax (μ-opioid receptors (MOR)): 0%

CO[C@H]1Cc2ccccc2[C@@H]1NCC[C@@]1(c2ccccn2)CCOC2(CCCC2)C1 [Example 17, (1S,2S)-2-methoxy-N-(2-((R)-9-(pyridin-2-yl)-6-oxaspiro[4.5]decan-9-yl)ethyl)-2,3-dihydro-1H-inden-1-amine]
EC50 (μ-opioid receptors (MOR)): > 10000 nM
Emax (μ-opioid receptors (MOR)): 0%

O[C@H]1Cc2ccccc2[C@@H]1NCCC1(c2ccccn2)CCOC2(CCCC2)C1 (stereo partly drawn) [Example 18, (1S,2S)-1-((2-(9-(pyridin-2-yl)-6-oxaspiro[4.5]decan-9-yl)ethyl)amino)-2,3-dihydro-1H-inden-2-ol]
EC50 (μ-opioid receptors (MOR)): > 10000 nM
Emax (μ-opioid receptors (MOR)): 4%

COC[C@@H]1CC[C@H](NCC[C@@]2(c3ccccn3)CCOC3(CCCC3)C2)c2ccccc21 [Example 23, (1S,4R)-4-(methoxymethyl)-N-(2-((R)-9-(pyridin-2-yl)-6-oxaspiro[4.5]decan-9-yl)ethyl)-1,2,3,4-tetrahydronaphthalen-1-amine]
EC50 (μ-opioid receptors (MOR)): 5 nM
Emax (μ-opioid receptors (MOR)): 120%

C=C1CC[C@H](NCC[C@@]2(c3ccccn3)CCOC3(CCCC3)C2)c2ccccc21 [Example 28, (S)-4-methylene-N-(2-((R)-9-(pyridin-2-yl)-6-oxaspiro[4.5]decan-9-yl)ethyl)-1,2,3,4-tetrahydronaphthalen-1-amine]
EC50 (MOR receptor): 15 nM
Emax (MOR receptor): 22%

N#CCO[C@H]1CC[C@H](NCC[C@@]2(c3ccccn3)CCOC3(CCCC3)C2)c2ccccc21 [Example 29, 2-(((1S,4S)-4-((2-((R)-9-(pyridin-2-yl)-6-oxaspiro[4.5]decan-9-yl)ethyl)amino)-1,2,3,4-tetrahydronaphthalen-1-yl)oxy)acetonitrile]
EC50 (MOR receptor; [1]): 33 nM
Emax (MOR receptor): 32%
EC50 (μ-opioid receptors (MOR); [2]): 7 nM
Emax (μ-opioid receptors (MOR)): 112%

CO[C@@H]1CC[C@H](NCC[C@@]2(c3ccccn3)CCOC3(CCCC3)C2)c2ccccc21 [Example 30, (1S,4R)-4-methoxy-N-(2-((R)-9-(pyridin-2-yl)-6-oxaspiro[4.5]decan-9-yl)ethyl)-1,2,3,4-tetrahydronaphthalen-1-amine]
EC50 (μ-opioid receptors (MOR)): 2 nM
Emax (μ-opioid receptors (MOR)): 126%

N#CCC1CC[C@H](NCC[C@@]2(c3ccccn3)CCOC3(CCCC3)C2)c2ccccc21 (stereo partly drawn) [Example 32, 2-((4S)-4-((2-((R)-9-(pyridin-2-yl)-6-oxaspiro[4.5]decan-9-yl)ethyl)amino)-1,2,3,4-tetra hydronaphthalen-1-yl)acetonitrile]
EC50 (μ-opioid receptors (MOR); [2]): 0.8 nM
Emax (μ-opioid receptors (MOR)): 133%

c1ccc([C@]2(CCN[C@H]3CCC4(OCCO4)c4ccccc43)CCOC3(CCCC3)C2)nc1 [Example 33, (S)-N-(2-((R)-9-(pyridin-2-yl)-6-oxaspiro[4.5]decan-9-yl)ethyl)-3,4-dihydro-2H-spiro[naphthalen-1,2′-[1,3]dioxolane]-4-amine]
Emax (MOR receptor): 27%

CCCO[C@H]1CC[C@H](NCC[C@@]2(c3ccccn3)CCOC3(CCCC3)C2)c2ccccc21 [Example 34, (1S,4S)-4-propoxy-N-(2-((R)-9-(pyridin-2-yl)-6-oxaspiro[4.5]decan-9-yl)ethyl)-1,2,3,4-tetrahydronaphthalen-1-amine]
EC50 (MOR receptor; [1]): 16 nM
Emax (MOR receptor): 10%

COc1ccsc1CNCC[C@@]1(c2ccccn2)CCOC2(CCCC2)C1 [TRV-130, reference compound]
IC50 (hERG potassium channel): 1600 nM
